For data set [1], the system named is mouse heart. The data set can be described thus: In vivo model of ischaemia reperfusion injury in mice. To be noted: 10 mg/kg 1938 i.v., heart after 15 min; single mice.
Data set [2] relates to A549 cells. Description: pAKT S473 ELISA, A549. Type of data set: cell-based, human. Particulars: 15 min; 5-10 μM 1938. How it is done:
A549 cells were seeded at 50,000 cells per well in 96-well plates in DMEM (10% FBS + 1% P/S). The next day cells were washed once with PBS before addition of serum-free DMEM for 24 h. On the day of treatment, cells were incubated in fresh serum-free DMEM prior to treatment. Compounds solubilised to 10 mM in DMSO were diluted 1:3 in an 8-point concentration response curve in DMSO. Concentration response curves were diluted in serum-free DMEM by transfer into intermediate plates using a BRAVO liquid handler (Agilent). Intermediate plates were then used to treat cell plates using the BRAVO liquid handler. […] Cell plates were treated for 15 min at 37°C, 5% CO2 before being washed with ice-cold PBS and lysed in lysis buffer […] Systems #895561) and freezing at -80°C. Levels of pAKT^S473 were determined using the phospho-AKT (S473) pan-specific Duoset IC ELISA (R&D Systems #DY[…]) in 96-well white high-binding plates (Corning #3922) according to manufacturer's instructions. Endpoint luminescence was measured using a Sense (Hidex) platereader. […] Data were transformed and EC50 data were determined by variable slope (4 parameters) non-linear regression using Prism 7 (Graphpad).
A general note: In an ELISA, binding on a coated surface is turned into a signal by an enzyme label.

Data set [3] relates to PI3Kα-KO MEFs. The data set can be described thus: CellTiter-Glo cell assay, PI3Kα-KO MEFs. Particulars: 24h. In kind it is cell-based, mouse. How it is done:
(§1) MEFs were seeded at 5000 cells per well in 96-well plates in DMEM supplemented with 10% FBS and 1% P/S, and allowed to attach overnight. The next day, cells were serum starved for 4 h prior to compound treatment in fresh serum-free DMEM. Compounds solubilised in DMSO were diluted 1:2 in a 12-point concentration response curve in DMSO. Intermediate plates were prepared by transferring 4 μl of compounds in DMSO into 96 μl of serum-free DMEM media. This was then used to treat cell plates by transferring 12.5 μl of solution from the intermediate plate into 87.5 μl of serum-free DMEM in the cell plates. […] Cell plates were incubated for 24 h, 48 h or 72 h at 37°C, 5% CO2, followed by determination of cell survival using the CellTiter-Glo® reagent according to manufacturer’s instructions (Promega #G7571). Endpoint luminescence was measured using CLARIOstar (BMG). Compound data were analyzed using GraphPad Prism 8.
A general note: In ATP-based viability assays light output follows the ATP content of the culture.

Data set [4] concerns PI3Kα-WT MEFs. Description: CellTiter-Glo cell assay, PI3Kα-WT MEFs. Type of data set: cell-based, mouse. How it is done: as §1
Data set [5] concerns rat sciatic nerve. The data set can be described thus: Rat sciatic nerve crush injury model. Type of data set: in vivo. Particulars: 21 days, single animals. The source says: We used the rat sciatic nerve crush model of peripheral nerve injury and regeneration[82]–[84]. Adult female Sprague Dawley rats (230-280 g, n=10, Charles River, UK) were anaesthetised by isoflurane inhalation in an induction chamber (5% isoflurane in O2, 0.8 l/min). Anaesthesia was maintained with 1.5-2.5% isoflurane inhalation, and the left sciatic nerve exposed at mid-thigh level.
The nerve was crushed by application of constant pressure using fully closed sterile type 4 tweezers (TAAB) for 15 sec. This was repeated two more times at the same point, with 45° rotation between each crush. The injury site was marked with a 10/0 epineurial non-absorbant suture (Ethicon). Following injury, a single 2 μl injection of 1938 solution (5 μM in sterile H2O) or vehicle (sterile dH2O) was administered proximal to the crush site with a 10 μl Hamilton syringe. An osmotic minipump (Alzet 1004, Charles River, UK) was also implanted between the muscle layers, adjacent to the nerve oriented with the outlet nearest to the crush site, loaded with 1938 solution (100 μM in sterile H2O) or vehicle (sterile H2O). Animals were randomly assigned to groups (n=5 per group) and one experimenter was kept blind to condition for conducting functional and histological analyses. Overlying muscle layers were closed using 4/0 sutures (Ethicon) and the skin was closed with wound clips (Clay Adams). Animals were left to recover for 21 days.
At the end-point of the experiment (21 days), rats were anaesthetised and the sciatic nerve exposed as described above. A reference, ground (Natus) and recording electrode (Ambu Neuroline) were attached above the hip bone, into the tail, and into the tibialis anterior muscle respectively. A microchannel neurointerface (MNI) was placed approximately 2 mm proximal to the injury site and used to stimulate the nerve. The MNI was manufactured using a previously documented protocol. Electrode impedance of the MNI was 27.1 ±19.8 kΩ at 1k Hz. Compound muscle action potential (CMAP) was obtained by sciatic nerve stimulation with square wave pulses of 100 μsec with intensity from 1-10 mA. Stimulus was increased in 0.2 mA steps until muscle response amplitude no longer increased. CMAP amplitude was measured from peak to peak and recorded in triplicate for both the ipsilateral and contralateral side. The CMAP with the largest amplitude was selected for analysis.
A modified multipoint stimulation technique was used to calculate Motor Unit Number Estimation (MUNE)[86]–[88]. Incremental responses were obtained by delivering a submaximal stimulation of 100 μsec duration at a frequency of 1Hz while increasing the stimulus intensity in increments of 0.02 mA to obtain minimal responses. The initial response was obtained with a stimulus intensity of between 0.21 mA and 0.70 mA. […] Additional Single Motor Unit Potentials (SMUPs) were evoked by stimulation in increments of 0.02 mA to obtain a minimum of four additional increments. The position of the stimulating electrode and the location of the recording electrode was changed to allow the recording of SMUPs from a different site of the muscle. This process was repeated at least three times. The CMAP was divided by the mean magnitude of SMUPs to quantify MUNE.
After electrophysiology recordings, animals were culled with sodium pentobarbital injection according to local regulations. Sciatic nerves, including the common peroneal branch, and tibialis anterior muscles were collected and placed in 4% paraformaldehyde (PFA). Nerve samples were fixed overnight in 4% PFA at 4°C before transferring to PBS. Nerve samples were divided into sciatic nerves including the crush site, and the common peroneal branch for sectioning. Nerve samples were immersed in 30% sucrose overnight at 4°C, then snap frozen in Neg-50 frozen section medium (Thermo Scientific) using liquid nitrogen cooled isopentane. […]

The mark [6] stands for this setting: sciatic nerve 3 mm distal to injury.
Where [7] appears, read: sciatic nerve 6 mm distal to injury.

Molecules are shown by their SMILES. Several values for one entry are separate records, joined by “and”; a condition that tells them apart may be missing. Identical values can stand only once.

Results on 1 compound are retold here after publication PMC7614683, “A small molecule PI3Kα activator for cardioprotection and neuroregeneration” (Nature, 2023).

In general, EC50 refers to the concentration giving half of the maximal effect. For the compound `CCN1CCN(c2ccc(Nc3cc(Nc4cccc5c4N(C(C)=O)CC5)ccn3)cc2)CC1` [Compound 1938], in data set [1], the “Western blot pAkt in vivo: pAkt/tAkt” value is 7.58 and 5.35 and 5.18. Moreover, the “pAKT^S473 generation” value in data set [2] was ~ 200 % of Emax of 1 μM insulin. Further, the “concentrations with a decrease in ATP levels (PI3Kα-independent effects)” value in data set [3] is above 7.5 µM. Moreover, in data set [4] (24h), the “concentrations with a decrease in ATP levels (PI3Kα-independent effects)” value is above 7.5 µM. Further, the “concentration from which non-PI3Kα-dependent effects are observed” value in data set [4] (48h and 72h incubation, PI3Kα-WT and PI3Kα-KO MEFs) is 2 to 4 µM. Moreover, in data set [4] (Mus musculus, 24h treatment, read-out: EC50 of increase in metabolic activity (ATP content)), the EC50 is around 500 nM. Further, the “Nerve Branch ChAT (ChAT-positive motor axons, distal common peroneal nerve)” value in data set [5] is “increase in 1938-treated animals in the number of choline acetyltransferase (ChAT)-positive motor axons and 34 and 72 and 42 and 49 and 62”. In data set [5] (setting [6]), the “Axons, ChAT” value is 1228 and 1010 and 1060 and 720 and 1883; the “Axons, Neurofilament” value was 7100 and 6477 and 6615 and 8292 and 8493. For the same compound, in data set [5] (setting [7]), the “Axons, ChAT” value was 922 and 986 and 763 and 966 and 1022; the “Axons, Neurofilament” value was 5299 and 5863 and 4746 and 5437 and 5016. In data set [5] (tibialis anterior muscle), the “CMAP Recovery” value was “greater compound muscle action potential (CMAP) recovery and 16.9542 % contralateral and 21.941 % contralateral and 17.4705 % contralateral and 17.5154 % contralateral and 28.7184 % contralateral”; the “MUNE Recovery” value was “increased motor unit number estimation and 60.8971 % contralateral and 47.6617 % contralateral and 40.6292 % contralateral and 44.6256 % contralateral and 48.3614 % contralateral”; the NMJ was 17 % reinnervation and 31 % reinnervation and 16 % reinnervation and 23 % reinnervation and 26 % reinnervation.
